Data set [1] addresses T1, human CYP2A6 (Homo sapiens (Human), UniProt P11509). Kind of data set: CYP2A6 mediated coumarin 7-hydroxylation inhibition. Conditions: for IC50: read-out: CYP2A6 IC50; for Ki: apparent Ki from IC50 by Cheng-Prusoff.
In data set [2] the target is T1, human CYP2A6.

SMILES strings stand for the structures. Read-outs that look alike come from different tables or passages of the source.

T1 sequence (P11509 whole entry): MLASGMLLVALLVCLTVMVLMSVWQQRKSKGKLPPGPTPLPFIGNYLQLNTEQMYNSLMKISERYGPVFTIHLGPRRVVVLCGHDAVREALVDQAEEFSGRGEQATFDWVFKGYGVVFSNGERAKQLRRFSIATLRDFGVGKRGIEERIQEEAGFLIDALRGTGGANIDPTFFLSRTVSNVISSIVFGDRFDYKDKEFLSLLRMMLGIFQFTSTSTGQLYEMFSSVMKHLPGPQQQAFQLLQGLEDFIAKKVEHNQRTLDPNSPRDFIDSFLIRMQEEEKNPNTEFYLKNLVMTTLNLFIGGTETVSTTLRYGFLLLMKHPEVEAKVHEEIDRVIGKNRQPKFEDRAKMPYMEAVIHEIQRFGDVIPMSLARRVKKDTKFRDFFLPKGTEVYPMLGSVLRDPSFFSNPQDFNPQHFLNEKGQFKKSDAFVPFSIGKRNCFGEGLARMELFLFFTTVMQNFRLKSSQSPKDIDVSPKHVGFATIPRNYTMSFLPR

In the case of `c1cncc(-c2cncnc2)c1` [Compound 77], the IC50 on human CYP2A6 [1] came to 165 ± 25 µM.

Regarding `CNCC#Cc1cccnc1` [Compound 26], half-maximal inhibition against human CYP2A6 [2] (IC50) required 5.36 ± 0.61 µM.

In the case of `Cc1cncc(-c2ccsc2)c1` [TD-IV-049 29], on human CYP2A6 [1] (coumarin 7-hydroxylation), the IC50 was determined as 1 ± 0.29 µM.

As to `c1cncc([C@@H]2CCCN2)c1` [Compound 90, Nornicotine, reference compound], the IC50 at human CYP2A6 [1] (coumarin 7-hydroxylation) is no less than 400 µM.

For `Brc1cncc(-c2ccsc2)c1` [Compound 78], on human CYP2A6 [1] (coumarin 7-hydroxylation), the IC50 worked out at 165 ± 16 µM.

With `CN1CCCC[C@H]1c1cccnc1` [Compound 94, N-Methylanabasine, reference compound], at human CYP2A6 [1] (coumarin 7-hydroxylation), the IC50 was no less than 400 µM.

On to `Cc1ccsc1C#Cc1cccnc1` [Compound 49], for which the IC50 at human CYP2A6 [1] is 20.2 ± 2.4 µM.

Regarding `CN(C)Cc1ccc(-c2cccnc2)s1` [Compound 75], the IC50 at human CYP2A6 [1] (coumarin 7-hydroxylation) is 133 ± 20 µM.

Regarding `C(#Cc1ccsc1)c1cccnc1` [Compound 68], on human CYP2A6 [1] (coumarin 7-hydroxylation), the IC50 came to 61.2 ± 11.5 µM.

As to `NCc1ccc(-c2cccnc2)s1` [Compound 1], at human CYP2A6 [1] (coumarin 7-hydroxylation), the “CYP2A6 inhibition (in words)” value was “significant inhibition”.

Consider `c1cncc(-c2ccc(CNCc3ccc(-c4cccnc4)o3)o2)c1` [Compound 39b, bis((5-(pyridin-3-yl)furan-2-yl)methyl)amine], for which the Ki at human CYP2A6 [1] (coumarin 7-hydroxylation) was 1.5 ± 0.3 µM. Also, the “fold decrease of CYP2A6 inhibitor potency” value on human CYP2A6 [1] (relative to compound 39a) was found to be 38 fold.

`C#Cc1cncc(-c2ccsc2)c1` [Compound 43] returned an IC50 at human CYP2A6 [2] of 12.9 ± 2.3 µM.

For the compound `CNCc1ccc(-c2cccnc2)s1` [Compound 40, N-Methyl(5-(pyridin-3-yl)thiophen-2-yl)methanamine], the Ki on human CYP2A6 [1] (coumarin 7-hydroxylation) was found to be 0.18 ± 0.02 µM.

As to `c1cncc(-c2ccnc(-c3cccnc3)c2)c1` [Compound 95, Nicotelline, reference compound], the IC50 at human CYP2A6 [1] was no less than 400 µM.

Turning to `COc1ccc(-c2ccsc2)cn1` [Compound 52], the IC50 on human CYP2A6 [1] (coumarin 7-hydroxylation) was greater than 25 µM.

Regarding `c1cc(-c2cncc(-c3ccsc3)c2)cs1` [Compound 55], the IC50 on human CYP2A6 [1] (coumarin 7-hydroxylation) turned out to be 26.7 ± 4.6 µM.

Consider `NCc1cc(-c2cccnc2)n[nH]1` [TD-VIII-081], for which the IC50 on human CYP2A6 [1] (coumarin 7-hydroxylation) was 0.58 ± 0.08 µM.

`c1cncc(-c2nnn[nH]2)c1` [Compound 64, 3-(1H-tetrazol-5-yl)pyridine] returned a Ki at human CYP2A6 [2] of 64.8 ± 11.3 µM.

Regarding `C[N+]1([O-])CCC[C@H]1c1cccnc1` (stereo partly drawn) [Compound 92, Nicotine N-1′-Oxide, reference compound], the IC50 at human CYP2A6 [1] (coumarin 7-hydroxylation) is no less than 400 µM.

With `CN1C(=O)CC[C@H]1c1cccnc1` [Compound 91, Cotinine, reference compound], the IC50 against human CYP2A6 [2] (human, pH 7.5) is no less than 400 µM.

Consider `COC(=O)c1cncc(-c2cscc2C)c1` [Compound 34], for which the IC50 on human CYP2A6 [1] (coumarin 7-hydroxylation) turned out to be 8 ± 0.8 µM.

With `C[N+]1=CCC[C@H]1c1cccnc1` [Compound 93, Nicotine Δ^1′-5′-iminium ion, reference compound], the IC50 at human CYP2A6 [1] (coumarin 7-hydroxylation) was no less than 400 µM.

`c1cncc(-n2cnnn2)c1` [Compound 88]: the IC50 at human CYP2A6 [1] (coumarin 7-hydroxylation) was 408 ± 88 µM.

As for `O=Cc1ccc(-c2cccnc2)o1` [Compound 87], the IC50 at human CYP2A6 [1] (coumarin 7-hydroxylation) was no less than 400 µM.

With `CN(C)CC#Cc1cccnc1` [Compound 51, N,N-Dimethyl-3-(pyridin-3-yl)prop-2-yn-1-amine], at human CYP2A6 [2] (human, pH 7.5), the Ki came out at 22.7 ± 7.8 µM and the “fold decrease of CYP2A6 inhibitor potency” value is 252 fold.

Take `CNCc1ccc(-c2cccnc2)o1` [Compound 41, N-Methyl(5-(pyridin-3-yl)furan-2-yl)methanamine]: the Ki on human CYP2A6 [1] (coumarin 7-hydroxylation) was 0.28 ± 0.06 µM. For the same compound, the “fold decrease of CYP2A6 inhibitor potency” value on human CYP2A6 [1] (relative to compound 39a) came to 7 fold.

On human CYP2A6 [2] (human, pH 7.5), `Cc1ccsc1-c1cncc(Br)c1` [Compound 37] had an IC50 of 8.9 ± 1.13 µM.

`Cc1cc(-c2sccc2C)cnc1Cl` [Compound 80]: the IC50 at human CYP2A6 [1] (coumarin 7-hydroxylation) came to 191 ± 36 µM.

The compound `COc1ccc(-c2sccc2C)cn1` [Compound 86] gave an IC50 against human CYP2A6 [2] (human, pH 7.5) of no less than 400 µM.

For `c1cncc(-c2ccc(CN(Cc3ccc(-c4cccnc4)o3)Cc3ccc(-c4cccnc4)o3)o2)c1` [Compound 39c, tris((5-(pyridin-3-yl)furan-2-yl)methyl)amine], at human CYP2A6 [2] (human, pH 7.5), the Ki was 2.8 ± 0.8 µM and the “fold decrease of CYP2A6 inhibitor potency” value is 70 fold.

Compound `c1cncc(-n2ccnc2)c1` [SD-I-21] gave an IC50 at human CYP2A6 [2] (human, pH 7.5) of 3.74 ± 0.78 µM.

As for `c1cncc(-c2cccnc2)c1` [Compound 30], on human CYP2A6 [2], inhibition was half-maximal at 6.6 ± 8.1 µM (IC50).

Regarding `Cc1cccc(-c2cccnc2)n1` [Compound 67], the IC50 on human CYP2A6 [1] (coumarin 7-hydroxylation) turned out to be 58.9 ± 11.9 µM.

For `c1cncc(-c2c[nH]cn2)c1` [TD-I-125], the IC50 at human CYP2A6 [2] (human, pH 7.5) came to 1.51 ± 0.31 µM.

Consider `Cc1cscc1-c1cncc(CO)c1` [Compound 70], for which, on human CYP2A6 [1] (coumarin 7-hydroxylation), the IC50 turned out to be 65 ± 7 µM.

Regarding `Cc1cccnc1-c1cccnc1` [Compound 82], at human CYP2A6 [1] (coumarin 7-hydroxylation), the IC50 came to 262 ± 69 µM.

Consider `CN(C)Cc1ccc(-c2cccnc2)s1` [Compound 42, N,N-Dimethyl(5-(pyridin-3-yl)thiophen-2-yl)methanamine], for which the Ki at human CYP2A6 [1] (coumarin 7-hydroxylation) amounted to 22.2 ± 3.3 µM. Besides, at human CYP2A6 [1] (relative to compound 38a), the “fold decrease of CYP2A6 inhibitor potency” value is on record as 1110 fold.

Take `c1ccc(-c2cccnc2)nc1` [Compound 66, 2,3′-Bipyridyl, reference compound]: on human CYP2A6 [2] (human, pH 7.5), the “CYP2A6 inhibition (in words)” value is recorded as “significant CYP2A6 inhibition” and the IC50 was 46.1 ± 7.1 µM.

As for `Cc1cncc([C@@H]2CCC[N+]2(C)[O-])c1` (stereo partly drawn) [Compound 65], the IC50 on human CYP2A6 [1] (coumarin 7-hydroxylation) worked out at 46 ± 5.2 µM.

For `OCc1ccc(-c2cccnc2)s1` [Compound 44, (5-(Pyridin-3-yl)thiophen-2-yl)methanol], on human CYP2A6 [2], the Ki stood at 5.6 ± 0.7 µM and the “fold decrease of CYP2A6 inhibitor potency” value came out at 280 fold.

Take `O=C1CC[C@@H](c2cccnc2)N1` [Compound 84, Norcotinine, reference compound]: at human CYP2A6 [1], the IC50 was determined as 274 ± 37 µM.

`c1ccc(CN2CCN=C2c2cccnc2)cc1` [Compound 89] came in with an IC50 against human CYP2A6 [2] (human, pH 7.5) of no less than 400 µM.

For `Cc1cscc1-c1cccnc1` [Compound 17], the IC50 against human CYP2A6 [2] (human, pH 7.5) was found to be 1.85 ± 0.5 µM.

Turning to `C1=CC[C@@H](c2cccnc2)NC1` [Compound 50, Anatabine, reference compound], the “CYP2A6 inhibition (in words)” value on human CYP2A6 [2] (human, pH 7.5) is “significant CYP2A6 inhibition”.

Take `Cc1cnc(N)c(-c2ccsc2)c1` [Compound 60]: on human CYP2A6 [1] (coumarin 7-hydroxylation), the IC50 was found to be 33.2 ± 41.7 µM.

Turning to `NCc1ccc(-c2ccccc2)o1` [TD-VIII-079], on human CYP2A6 [1] (coumarin 7-hydroxylation), the 50% inhibitory concentration (IC50) was determined as 1.23 ± 0.16 µM.

Take `Cc1cncc(-c2sccc2C)c1` [Compound 71]: at human CYP2A6 [1] (coumarin 7-hydroxylation), the IC50 amounted to 66 ± 9 µM.

`Cc1cnc(N)c(-c2sccc2C)c1` [Compound 42]: the IC50 at human CYP2A6 [1] (coumarin 7-hydroxylation) worked out at 11.5 ± 2.1 µM.

Turning to `C1=CC[C@@H](c2cccnc2)NC1` [Compound 50], at human CYP2A6 [2] (human, pH 7.5), the IC50 turned out to be 23 ± 3.6 µM and the “fold decrease of CYP2A6 inhibitor potency” value is on record as 10 fold.

Turning to `Cc1ccsc1/C=C/c1cccnc1` [Compound 40], on human CYP2A6 [1] (coumarin 7-hydroxylation), the IC50 was roughly 10 µM.

In the case of `COc1ccc(-c2ccsc2)cn1` [Compound 18, 2-Methoxy-5-(thiophen-3-yl)pyridine], on human CYP2A6 [1] (coumarin 7-hydroxylation), the Ki stood at 9.7 ± 2.1 µM.

As for `c1cncc(C2=NCCCC2)c1` [Compound 74, Anabaseine, reference compound], the IC50 against human CYP2A6 [2] (human, pH 7.5) worked out at 120 ± 38 µM.

`c1cncc(-c2cnc3ccccc3c2)c1` [Compound 83] returned an IC50 on human CYP2A6 [2] (human, pH 7.5) of 267 ± 245 µM.

Turning to `O=[N+]([O-])c1ccc(-c2cccnc2)s1` [Compound 73], the IC50 at human CYP2A6 [1] (coumarin 7-hydroxylation) is 118 ± 14 µM.

For `NCc1ccc(-c2ccccc2)s1` [TD-VIII-089], the IC50 on human CYP2A6 [1] (coumarin 7-hydroxylation) stood at 1.16 ± 0.11 µM.

Consider `NCCCc1ccc(-c2cccnc2)o1` [Compound 53], for which, at human CYP2A6 [1] (coumarin 7-hydroxylation), the IC50 was greater than 25 µM.

On to `Cn1cccc1-c1cccnc1` [Compound 19, β-Nicotyrine, reference compound], for which, on human CYP2A6 [1] (coumarin 7-hydroxylation), the “CYP2A6 inhibition (in words)” value is recorded as “significant CYP2A6 inhibition” and the IC50 amounted to 2.2 ± 0.22 µM.

Turning to `Cc1cncc(-c2ccsc2)c1` [Compound 56, 3-Methyl-5-(thiophen-3-yl)pyridine], the Ki at human CYP2A6 [1] (coumarin 7-hydroxylation) was found to be 0.17 ± 0.05 µM. Besides, the “fold change worded 'increased the Ki value' (Ki […] vs […])” value on human CYP2A6 [1] (relative to compound 16) is 1.3 fold.

For `NCC#Cc1ccc(Cl)nc1` [TD-VIII-031], the IC50 at human CYP2A6 [1] (coumarin 7-hydroxylation) is no more than 1.68 µM.

As usually defined, the IC50 is the midpoint of a concentration-inhibition curve.

The values above are taken from patent publication US8609708B2 (Human BioMolecular Research Institute, priority 2003, dated 2013).
